Test results from patent publication US20120058999A1, “Substituted Tetrahydropyrrolopyrazine Compounds” (Gruenenthal GmbH, priority 2010, published 2012).

How the values were obtained:
rat B1R = biological target: T1, rat B1R (Rattus norvegicus, UniProt P97583); test: Functional investigation on the bradykinin 1 receptor, cell-based fluorescent calcium-mobilization assay (FLIPR), rat; conditions: 10 μM test substance; CHO K1 cells transfected with rat B1R gene; agonist Des-Arg9-bradykinin at EC80; % of maximum achievable inhibition
T1 construct: expressed in transfected cells; host or cells: CHO K1 cells (stably transfected)
T1 sequence (P97583 1-337): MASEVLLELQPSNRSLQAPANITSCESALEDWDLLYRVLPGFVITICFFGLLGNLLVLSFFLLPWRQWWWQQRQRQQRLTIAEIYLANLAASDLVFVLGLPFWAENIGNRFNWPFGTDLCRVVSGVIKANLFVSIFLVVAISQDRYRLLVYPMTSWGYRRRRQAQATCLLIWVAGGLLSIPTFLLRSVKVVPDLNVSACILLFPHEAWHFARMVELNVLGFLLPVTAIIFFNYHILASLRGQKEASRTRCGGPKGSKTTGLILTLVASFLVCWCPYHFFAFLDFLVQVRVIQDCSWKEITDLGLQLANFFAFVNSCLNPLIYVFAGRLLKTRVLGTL
Protocol: (§1) The agonistic or antagonistic action of substances can be quantified on the bradykinin 1 receptor (B1R) of the human and rat species with ectopically expressing cell lines (CHO K1 cells) and with the aid of a Ca2+-sensitive dye (Fluo-4) using a fluorescent imaging plate reader (FLIPR). The value in % activation is based on the Ca2+ signal after addition of Lys-Des-Arg9 bradykinin (0.5 nM) or Des-Arg9 bradykinin (100 nM). Antagonists lead to a suppression of the Ca2+ influx following administration of the agonist. The % inhibition in comparison with the maximum achievable inhibition is indicated.
(§2) The agonistic or antagonistic action of substances can be determined on the bradykinin 1 receptor (B1R) of humans and rats by means of a cell-based fluorescent calcium-mobilization assay. According to this assay agonist-induced increase of intracellular free Ca^2+ is quantified by means of a Ca^2+-sensitive dye (Fluo-4 type, Molecular Probes Europe BV, Leiden, Netherlands), in a Fluorescent Imaging Plate Reader (FLIPR, Molecular Devices, Sunnyvale, USA) and/or the Novostar (BMG Labtech GmbH, Offenburg, Germany).
(§3) Chinese hamster ovary cells (CHO K1 cells), which are stably transfected with the human B1R gene (hB1R cells), or with the B1R gene of rats (rB1R cells) are used. For functional investigations these cells are seeded into black 96-well plates with a clear bottom (BD Biosciences, Heidelberg, Germany or Greiner, Frickenhausen, Germany) in a density of 20,000-35,000 cells/well. The cells are incubated overnight in a humidified atmosphere at 37° C. and 5% CO2 in culture medium (hB1R cells: Nutrient Mixture Ham's F12, Gibco Invitrogen GmbH, Karlsruhe, Germany or DMEM, Sigma-Aldrich, Taufkirchen, Germany; rB1R cells: D-MEM/F12, Gibco Invitrogen GmbH, Karlsruhe, Germany) with 10 vol. % FBS (foetal bovine serum, Gibco Invitrogen GmbH, Karlsruhe, Germany). On the following day the cells are loaded with the Ca^2+-sensitive dye Fluo-4-AM (Molecular Probes Europe BV, Leiden, Netherlands):
(§4) Method A: The medium of the cells is removed and cell plates are incubated with loading solution, which contains 2.13 μM Fluo-4-AM, 2.5 mM probenecid (Sigma-Aldrich, Taufkirchen, Germany), and 10 mM HEPES (Sigma-Aldrich, Taufkirchen, Germany) in HBSS buffer (Hank's buffered saline solution, Gibco Invitrogen GmbH, Karlsruhe, Germany) for 60 minutes at 37° C. After the plates are washed twice with HBSS buffer, HBSS buffer supplemented 0.1% BSA (bovine serum albumin; Sigma-Aldrich, Taufkirchen, Germany), 5.6 mM glucose and 0.05% gelatine (Merck KGaA, Darmstadt, Germany) is added. Cell plates are incubated for at least 20 minutes in the dark at room temperature before they are used for the Ca^2+ measurement in the FLIPR or Novostar. Method B: The plates are washed with buffer A (15 mM HEPES, 80 mM NaCl, 5 mM KCl, 1.2 mM CaCl2, 0.7 mM MgSO4, 2 mg/ml glucose, 2.5 mM probenecid) and subsequently loaded with buffer A containing 2.4 μM Fluo-4-AM and 0.025% pluronic F127 (Sigma-Aldrich, Taufkirchen, Germany) for 60 minutes at 37° C. Cell plates are washed twice with buffer A. Then, buffer A supplemented with 0.05% BSA and 0.05% gelatine is added and cell plates are incubated in the dark at room temperature for at least 20 minutes before measurement in the FLIPR or Novostar is started.
(§5) The Ca^2+-dependent fluorescence is measured both before and after the addition of substances (λex=488 nm, λem=540 nm). For quantification of the effect the highest fluorescence intensity (FC, fluorescence counts) over time is given.
(§6) The FLIPR protocol consists of two substance additions, done within the instrument while continuously monitoring the Ca^2+-dependent fluorescence at 540 nm. When the Novostar was used, one addition had to be done outside the instrument. First of all test substances (10 μM) are pipetted onto the cells and the intracellular Ca^2+ rise is compared with the control (hB1R: Lys-Des-Arg9-bradykinin >=50 nM; rB1R: Des-Arg9-bradykinin >=1 μM). […]

human B1R = biological target: T2, human B1R (Homo sapiens, UniProt P46663); test: Functional investigation on the bradykinin 1 receptor, cell-based fluorescent calcium-mobilization assay (FLIPR), human; conditions: 10 μM test substance; CHO K1 cells transfected with human B1R gene; agonist Lys-Des-Arg9-bradykinin at EC80; % of maximum achievable inhibition
T2 construct: expressed in transfected cells; host or cells: CHO K1 cells (stably transfected)
T2 sequence (P46663 1-353): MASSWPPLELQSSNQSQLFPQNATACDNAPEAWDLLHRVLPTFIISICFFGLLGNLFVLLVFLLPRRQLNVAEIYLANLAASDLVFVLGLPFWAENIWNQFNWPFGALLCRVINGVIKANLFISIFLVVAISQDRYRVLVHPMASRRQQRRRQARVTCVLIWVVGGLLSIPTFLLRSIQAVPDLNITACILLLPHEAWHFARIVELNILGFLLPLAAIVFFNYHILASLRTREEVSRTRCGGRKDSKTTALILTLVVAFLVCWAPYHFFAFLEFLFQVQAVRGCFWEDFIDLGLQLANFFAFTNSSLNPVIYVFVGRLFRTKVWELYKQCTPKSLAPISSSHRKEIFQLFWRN
Protocol: as §1, §2, §3, §4, §5, §6

SMILES	inhibition at 10 µM (rat B1R)	inhibition at 10 µM (human B1R)
Cc1cccc(Cl)c1S(=O)(=O)N1CCn2cccc2C1COCC(=O)N(C)[C@H]1CCC[C@@H](N2CCN(C)CC2)C1 (stereo partly drawn) [SC-02, 2-[[2-[(2-Chloro-6-methyl-phenyl)sulfonyl]-1,2,3,4-tetrahydro-pyrrolo[1,2-a]pyrazin-1-yl]-methoxy]-N-methyl-N-[(1S,3R)-3-(4-methyl-piperazin-1-yl)-cyclohexyl]-acetamide]	105%	100%
COc1cc(C)c(S(=O)(=O)N2CCn3cccc3C2CCCC(=O)N(C)C2CC(N3CCN(C)CC3)C2)c(C)c1 (stereo not shown) [CC-59, 4-[2-[(4-Methoxy-2,6-dimethyl-phenyl)sulfonyl]-1,2,3,4-tetrahydro-pyrrolo[1,2-a]pyrazin-1-yl]-N-methyl-N-[3-(4-methyl-piperazin-1-yl)-cyclobutyl]-butyramide]	97%	80%
COc1ccc2cc(S(=O)(=O)N3CCn4cccc4C3CC(=O)N(C)C3CC(N4CCN(C)CC4)C3)ccc2c1 (stereo not shown) [CC-60, 2-[2-[(6-Methoxy-naphthalen-2-yl)sulfonyl]-1,2,3,4-tetrahydro-pyrrolo[1,2-a]pyrazin-1-yl]-N-methyl-N-[3-(4-methyl-piperazin-1-yl)-cyclobutyl]-acetamide]	106%	99%
COc1cc(C)c(S(=O)(=O)N2CCn3cccc3C2CCCC(=O)N[C@H]2CCC[C@@H](N3CCN(C)CC3)C2)c(C)c1 (relative stereo) [CC-07, 4-[2-[(4-Methoxy-2,6-dimethyl-phenyl)sulfonyl]-1,2,3,4-tetrahydro-pyrrolo[1,2-a]pyrazin-1-yl]-N-[cis-3-(4-methyl-piperazin-1-yl)-cyclohexyl]-butyramide]	101%	86%
CN1CCN(C2CC(N(C)C(=O)CCC3c4cccn4CCN3S(=O)(=O)c3cccc(C(F)(F)F)c3)C2)CC1 (stereo not shown) [CC-61, N-Methyl-N-[3-(4-methyl-piperazin-1-yl)-cyclobutyl]-3-[2-[[3-(trifluoromethyl)phenyl]sulfonyl]-1,2,3,4-tetrahydro-pyrrolo[1,2-a]pyrazin-1-yl]-propionamide]	14%	12%
COc1cc(C)c(S(=O)(=O)N2CCn3c(C)ccc3C2COCC(=O)N(C)[C@H]2CCC[C@@H](N3CCN(C)CC3)C2)c(C)c1 (stereo partly drawn) [SC-06, 2-[[2-[(4-Methoxy-2,6-dimethyl-phenyl)sulfonyl]-6-methyl-1,2,3,4-tetrahydro-pyrrolo[1,2-a]pyrazin-1-yl]-methoxy]-N-methyl-N-[(1S,3R)-3-(4-methyl-piperazin-1-yl)-cyclohexyl]-acetamide]	110%	97%
Cc1cc(S(=O)(=O)N2CCn3cccc3C2CCC(=O)N(C)[C@H]2CCC[C@@H](N3CCN(C)CC3)C2)c(C)cc1Cl (stereo partly drawn) [SC-03, 3-[2-[(4-Chloro-2,5-dimethyl-phenyl)sulfonyl]-1,2,3,4-tetrahydro-pyrrolo[1,2-a]pyrazin-1-yl]-N-methyl-N-[(1S,3R)-3-(4-methyl-piperazin-1-yl)-cyclohexyl]-propionamide]	61%	95%

Further lines, results first:

inhibition at 10 µM (rat B1R)	inhibition at 10 µM (human B1R)	SMILES
104%	87%	COc1cc(C)c(S(=O)(=O)N2CCn3cccc3C2CCCC(=O)N(C)[C@H]2CCC[C@@H](N3CCN(C)CC3)C2)c(C)c1 (relative stereo) [CC-02, 4-[2-[(4-Methoxy-2,6-dimethyl-phenyl)sulfonyl]-1,2,3,4-tetrahydro-pyrrolo[1,2-a]pyrazin-1-yl]-N-methyl-N-[cis-3-(4-methyl-piperazin-1-yl)-cyclohexyl]-butyramide]
100%	101%	COc1cc(C)c(S(=O)(=O)N2CCn3cccc3C2COCC(=O)N(C)C2CCC(N3CCN(C)CC3)CC2)c(C)c1 (stereo not shown) [SC-05, 2-[[2-[(4-Methoxy-2,6-dimethyl-phenyl)sulfonyl]-1,2,3,4-tetrahydro-pyrrolo[1,2-a]pyrazin-1-yl]-methoxy]-N-methyl-N-[4-(4-methyl-piperazin-1-yl)-cyclohexyl]-acetamide]
103%	100%	COc1cc(C)c(S(=O)(=O)N2CCn3cccc3C2COCC(=O)N(C)[C@H]2CCC[C@@H](N3CCN(C)CC3)C2)c(C)c1 (stereo partly drawn) [SC-01, 2-[[2-[(4-Methoxy-2,6-dimethyl-phenyl)sulfonyl]-1,2,3,4-tetrahydro-pyrrolo[1,2-a]pyrazin-1-yl]-methoxy]-N-methyl-N-[(1S,3R)-3-(4-methyl-piperazin-1-yl)-cyclohexyl]-acetamide]
105%	100%	COc1cc(C)c(S(=O)(=O)N2CCn3cccc3C2COCC(=O)N(C)[C@H]2CCC[C@@H](N3CCN(C)CC3)C2)c(C)c1 (relative stereo) [CC-01, 2-[[2-[(4-Methoxy-2,6-dimethyl-phenyl)sulfonyl]-1,2,3,4-tetrahydro-pyrrolo[1,2-a]pyrazin-1-yl]-methoxy]-N-methyl-N-[cis-3-(4-methyl-piperazin-1-yl)-cyclohexyl]-acetamide]
